The term AUC(0-inf) denotes the area under the concentration-time curve extrapolated to infinity. As a reminder, the Cmax is the highest concentration seen after dosing. As a reminder, the Tmax is the time from dosing to the highest level. What is called IC50 is the concentration at which inhibition is half-maximal. Usually EC50 stands for the midpoint of the concentration-response curve.

Consider 1 molecule from publication PMC9421654, “Discovery of Substituted Di(pyridin-2-yl)-1,2,4-thiadiazol-5-amines as Novel Macrofilaricidal Compounds for the Treatment of Human Filarial Infections” (Journal of Medicinal Chemistry, 2022).

The nature of one series: Mouse pharmacokinetics. The format is in vivo. The note with it: male CD-1 mouse, PO 30 mg/kg suspension. The text has this: All animal experiments were approved by the Institutional Animal Care and Use Committee (IACUC) of Bristol Myers Squibb.
A further series relates to THLE-2 cells. Kind of series: THLE-2 cytotoxicity assay (ATP). The note with it: Homo sapiens, THLE-2, 24 h, read-out: THLE IC50. The gist of the method:
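THLE-2 cells in supplemented LHC-8 medium were exposed for 24 or 72 h to final concentrations of 0.01–300 μM. Viability was read as ATP by CellTiter-Glo luminescence and normalized to DMSO vehicle. IC50 came from nonlinear regression of dose-response curves.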

Series [1] has as its system O. gutturosa adult male worms. As to the kind of experiment: O. gutturosa adult worm ex vivo assay, MTT/formazan viability. The format is cell-based, Onchocerca gutturosa. The note with it: Onchocerca gutturosa, supplement; SD in brackets in the PDF table; read-out: O. gutturosa EC50 (uM) MTT viability inhibition. An outline of the steps: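 Adult male worms from naturally infected Gambian cattle were kept individually in MEM with 10% newborn calf serum at 37 °C, 5% CO2; four worms per concentration. Motility was scored 0-10 every 24 h to 120 h as a percentage of maximum, with ≥50% reduction versus untreated counted active. Afterwards, MTT (0.5 mg/mL, 30 min) formazan was read at 490 nm.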

A short description of series [2]: Liver S9 metabolic stability assay, rat. The note with it: 3 μM, 60 min. Format: in vitro ADME. The gist of the method:
(§1)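 Rat and human liver S9 (0.75 and 1.2 mg/ml) with 1 mM NADPH, 0.5 mM UDPGA, 2.5 mM GSH, 0.05 mg/ml PAPS, 3µM substrate, 60 min at 37 °C in Tris/MgCl2 pH 7.4. Mouse microsomes 0.3 mg/mL, 1 mM NADPH, 3µM, 30 min, phosphate pH 7.4. LC-MS/MS, % remaining, triplicate.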

Series [3] has as its system O. gutturosa adult male worms. Kind of series: O. gutturosa adult worm ex vivo assay, motility. The format is cell-based, Onchocerca gutturosa. The note with it: Onchocerca gutturosa, read-out: O. gutturosa EC50 μM (SD), ex vivo adult worm motility reduction; SD in brackets. The gist of the method: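 Adult male O. gutturosa from naturally infected cattle were cultured in supplemented MEM at 37 °C, 5% CO2, with four worms per concentration in serial 1-in-4 dilutions. Motility (0–10 scale) was scored every 24 h to 120 h. EC50 (geomean, n=2) for motility reduction came from 4PL fits, and viability was checked by MTT at 120 h.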

Series [4] has as its system L. sigmodontis adult worms. On the set-up: method as in PMID 35834918. As to conditions: infected mice; cited from earlier work.
Series [5] in a line: Liver S9 metabolic stability assay, human. As to conditions: 3 μM, 60 min. The format is in vitro ADME. An outline of the steps: as §1

`COc1ccc(Nc2nc(-c3ccccn3)cs2)nc1` [Compound 1]: in “Mouse pharmacokinetics”, the “AUC(0-inf)” value amounted to 1580 ± 270 nM·h, the Cmax was 0.69 ± 0.18 µM and the Tmax is 30 ± 0 min. Moreover, the IC50 in the series with THLE-2 cells was 72.4 µM. Further, the EC50 in series [1] was 0.94 µM. The “Rat S9 metabolic stability” value in series [2] is on record as 51 % remaining. Besides, the EC50 in series [3] worked out at 0.27 µM. Also, the “reduction of adult L. sigmodontis worms” value in series [4] was 68%. Further, the “Human S9 metabolic stability” value in series [5] is 59 % remaining.
